The record followed here is publication PMC9021956, “Screening and Identification of HBV Epitopes Restricted by Multiple Prevalent HLA-A Allotypes” (Frontiers in Immunology, 2022).

One experiment has as its target T1, HLA-A0201 (Homo sapiens, UniProt P04439, D140Y/D185E/D98H/E176V/E277Q/G131W/G231S/I119V/I121R/I166T/I218V/L300P/L318F/N151K/N90K/P208A/P217A/Q86G/Q94H/R138H/R169H/T345S).
T1 construct: expressed in transfected cells; host or cells: HMy2.CIR
In words: cell-based. In kind it is binding. Particulars: for inhibition at 5 µM / inhibition at 15 µM: HLA-A0201 HMy2.CIR cells, 24 hours, flow cytometry; for inhibition at 5 µM: competitor peptide 5μM, read-out: 5μM Inhibition (%); for inhibition at 15 µM: competitor peptide 15μM, read-out: 15μM Inhibition (%). In short, it runs like this: (§1)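 HMy2.CIR cells stably transfected with the HLA-A allele, acid-stripped (citrate/phosphate, pH3.3), neutralised and plated with β2-m (1 μg/mL); unlabeled peptide competes with the allele's FITC reference peptide. FITC+ cells read by flow cytometry; competitive binding % normalised to no-peptide and reference-only wells; IC50 reported.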

For the next experiment, the target named is T2, HLA-A0203 (Homo sapiens, UniProt P04439, A173T/D140Y/D185E/D98H/E277Q/G131W/G231S/I119V/I121R/I166T/I218V/L180W/L300P/L318F/N151K/N90K/P208A/P217A/Q86G/Q94H/R138H/R169H/T345S).
T2 construct: expressed in transfected cells; host or cells: HMy2.CIR
In words: cell-based. The format is binding. Particulars: for inhibition at 5 µM / inhibition at 15 µM: HLA-A0203 HMy2.CIR cells, 24 hours, flow cytometry; for inhibition at 5 µM: competitor peptide 5μM; for inhibition at 15 µM: competitor peptide 15μM. Summed up: as §1

The next experiment addresses T3, HLA-A0206 (Homo sapiens, UniProt P04439, D140Y/D185E/D98H/E176V/E277Q/F33Y/G131W/G231S/I119V/I121R/I166T/I218V/L300P/L318F/N151K/N90K/P208A/P217A/Q86G/Q94H/R138H/R169H/T345S).
T3 construct: expressed in transfected cells; host or cells: HMy2.CIR
In words: cell-based. The format is binding. The settings on record: for inhibition at 5 µM / inhibition at 15 µM: HLA-A0206 HMy2.CIR cells, 24 hours, flow cytometry; for inhibition at 5 µM: competitor peptide 5μM, read-out: 5μM Inhibition (%); for inhibition at 15 µM: competitor peptide 15μM, read-out: 15μM Inhibition (%). Summed up: as §1

Another experiment deals with T4, HLA-A0207 (Homo sapiens, UniProt P04439, D140Y/D185E/D98H/E176V/E277Q/G131W/G231S/I119V/I121R/I166T/I218V/L300P/L318F/N151K/N90K/P208A/P217A/Q86G/Q94H/R138H/R169H/T345S/Y123C).
T4 construct: expressed in transfected cells; host or cells: HMy2.CIR
In words: cell-based. The settings on record: for inhibition at 5 µM / inhibition at 15 µM: HLA-A0207 HMy2.CIR cells, 24 hours, flow cytometry; for inhibition at 5 µM: competitor peptide 5μM, read-out: 5μM Inhibition (%); for inhibition at 15 µM: competitor peptide 15μM, read-out: 15μM Inhibition (%). In kind it is binding. Summed up: as §1

The next experiment concerns the target HLA-A2402 (Homo sapiens, UniProt P04439, D101N/D140Y/D185E/E176V/E190D/F33S/G103R/G107R/I119L/I121M/I306V/K335N/L105A/L180Q/L300P/N151K/N90K/Q86E/Q94H/R106L/R138H/R89G/T104I/T345S/V100E/W191G/Y123F). In words: cell-based. The format is binding. Particulars: for inhibition at 5 µM / inhibition at 15 µM: HLA-A2402 HMy2.CIR cells, 24 hours, flow cytometry; for inhibition at 5 µM: competitor peptide 5μM; for inhibition at 15 µM: competitor peptide 15μM. In short, it runs like this:
as §1

In a further experiment the target is T5, HLA-A3303 (Homo sapiens, UniProt P04439, A270S/D185E/E176V/E277Q/E87N/F33T/G231S/H175R/I121M/I218V/I322F/K168Q/L300P/L318F/M331R/P217A/Q86R/Q94H/R138Q/T323A/T345S/T97I/V358M).
T5 construct: expressed in transfected cells; host or cells: HMy2.CIR
In words: cell-based. In kind it is binding. The settings on record: for inhibition at 5 µM / inhibition at 15 µM: HLA-A3303 HMy2.CIR cells, 24 hours, flow cytometry; for inhibition at 5 µM: competitor peptide 5μM, read-out: 5μM Inhibition (%); for inhibition at 15 µM: competitor peptide 15μM, read-out: 15μM Inhibition (%). In short, it runs like this:
as §1

Experiment [1] has as its system twelve prevalent HLA-A allotypes. In words: Peptide competitive binding assay, whole panel. On the set-up: species or system human. The settings on record: high = IC50<5μM. Here is the method: A set of fluoresce-labeled reference peptides (positive-control peptide) were synthesized with a purity of >99% by Sangon Biotech and stored at 4°C, such as FLPSDK(FITC)FPSV for A0201, A0203 and A0206 ([30]), YVNVNK(FITC)GLK for A1101 and A3303 ([31]), EYLVSK(FITC)GVW for A2402 ([32]), ATFQFK(FITC)VER for A3101, A1102 and A0301 ([33]), KLPDDFK(FITC)GCV for A0207 ([34]), YLEPAK(FITC)AKY for A0101 ([30]), and ASRELK(FITC)VSY for A3001 (identified in house). Then the competitive peptide binding assay was performed as described with minor modifications ([30], [35]). Briefly, the HMy2.CIR cell lines expressing the indicated HLA-A molecule were washed with acid buffer (0.131M citric acid and 0.061M sodium phosphate Na2HPO4, PH3.3, 0.22 μm filtered) for 1 min, and immediately neutralized by IMDM medium containing 0.5% BSA. After washing, the cells were seeded into 96-well U culture plate (1×10^5 cells/100 μL/well) with β2-m (1 μg/mL). […] In parallel, no peptide control well (cells alone) and positive control well (cells with FITC-labeled reference peptide) were also performed.
The plate was centrifuged at 600 rpm for 5 min at room temperature (RT). Cells were washed twice with 100 μL cold 0.5% BSA-PBS. Finally, cells were resuspended with 150 μL PBS and analyzed with flow cytometry. Sample % is the percentage of FITC^+ cells in the experiment well, while the background % is the percentage of FITC^+ cells in the no peptide control well, and the max % is the percentage of FITC^+ cells in the positive control well. Competitive binding (%) = [1-(sample % - background %)/(max % – background %)] × 100%. […] Binding affinity of unlabeled peptide with the indicated HLA-A molecule is assessed by IC50.
Subsequently, the unlabeled epitope peptides of HBV competed with fluorescently labeled reference peptides in the binding with HLA-A molecules onto transfected cell lines for 24 hours. Here, twelve prevalent HLA-A allotypes were tested with totally 62 HBV epitope peptides validated in house.

The next experiment has as its target T6, HLA-A1101 (Homo sapiens, UniProt P04439, A114D/D185E/E176A/F33Y/L180Q/S129P/T187R).
T6 construct: expressed in transfected cells; host or cells: HMy2.CIR
In words: cell-based. In kind it is binding. The settings on record: for inhibition at 5 µM: read-out: 5μM Inhibition (%); for inhibition at 15 µM: read-out: 15μM Inhibition (%). In short, it runs like this: as §1

A further experiment concerns the target T7, HLA-A0301 (Homo sapiens, UniProt P04439).
T7 construct: expressed in transfected cells; host or cells: HMy2.CIR
In words: Peptide competitive binding assay, transfected HMy2.CIR cells, reference ATFQFK(FITC)VER. In short, it runs like this:
as §1

The target of a further experiment is T8, HLA-A1102 (Homo sapiens, UniProt P04439, A114D/D185E/E176A/E43K/F33Y/L180Q/S129P/T187R).
T8 construct: expressed in transfected cells; host or cells: HMy2.CIR
The description is as above. In short, it runs like this:
as §1

Setting [2] is: HLA-A1101 HMy2.CIR cells, competitor peptide 5μM, 24 hours, flow cytometry.
Setting [3] is: HLA-A1101 HMy2.CIR cells, competitor peptide 15μM, 24 hours, flow cytometry.

Read-outs that look alike come from different tables or passages of the source. Residues, ends and D or L forms follow the SMILES beside them.

Consider `CC(C)C[C@H](NC(=O)[C@@H](N)Cc1ccccc1)C(=O)N1CCC[C@H]1C(=O)N[C@@H](CO)C(=O)N[C@@H](CC(=O)O)C(=O)N[C@@H](Cc1ccccc1)C(=O)N[C@@H](Cc1ccccc1)C(=O)N1CCC[C@H]1C(=O)N[C@@H](CO)C(=O)O` [Epitope P67] (H-FLPSDFFPS-OH; N-terminus and C-terminus assumed), for which the IC50 at HLA-A0201 was below 5 µM; on HLA-A0203, below 5 µM; at HLA-A0206, below 5 µM; at HLA-A0207, above 15 µM; on HLA-A2402, above 15 µM; at HLA-A3303 it was above 15 µM. In addition, the inhibition at 5 µM on HLA-A0201 was found to be 91.5%; at HLA-A0203 it was 86.3%; on HLA-A0206, 95.7%; at HLA-A0207 it was 42%; on HLA-A2402, 2%; on HLA-A3303, 0%. In addition, the inhibition at 15 µM stood at 97.8% on HLA-A0201; 91.5% on HLA-A0203; 100% on HLA-A0206; 48% at HLA-A0207; 4.3% at HLA-A2402; 0% at HLA-A3303. Moreover, the “number of HLA-A allotypes bound with high affinity” value (“number of HLA-A allotypes bound” for short) in experiment [1] is listed as “three”.
Turning to `CC[C@H](C)[C@H](NC(=O)CNC(=O)[C@H](CC(C)C)NC(=O)[C@H](CO)NC(=O)[C@H](CC(C)C)NC(=O)[C@H](CC(C)C)NC(=O)[C@@H](N)Cc1ccccc1)C(=O)N[C@@H](Cc1c[nH]cn1)C(=O)N[C@@H](CC(C)C)C(=O)O` [Epitope P10], the inhibition at 5 µM at HLA-A0201 is 81.7%; at HLA-A0206, 21.5%; on HLA-A0207 it was 27%; at HLA-A1101 (setting [2]), 7.2%; at HLA-A2402 it was 19%; at HLA-A3303, 60.1%. Further, the inhibition at 15 µM at HLA-A0201 came out at 71.6%; at HLA-A0206, 43.2%; at HLA-A0207, 31%; on HLA-A1101 (setting [3]), 8%; at HLA-A2402, 17%; at HLA-A3303 it was 66.1%. In experiment [1], the “number of HLA-A allotypes bound” value is “two”.
Regarding `CC[C@H](C)[C@H](NC(=O)[C@H](Cc1c[nH]c2ccccc12)NC(=O)[C@@H](NC(=O)CNC(=O)[C@H](Cc1ccccc1)NC(=O)[C@H](CO)NC(=O)[C@@H](NC(=O)[C@H](CC(C)C)NC(=O)[C@@H](N)Cc1ccc(O)cc1)C(C)C)C(C)C)C(=O)O` [Epitope P11], the IC50 at HLA-A0201 is below 5 µM; at HLA-A0203, below 5 µM; on HLA-A1101, above 15 µM; on HLA-A3303, above 15 µM. The inhibition at 5 µM on HLA-A0201 was determined as 81.2%; at HLA-A0203, 89.4%; at HLA-A1101 (24 h), 17.1%; at HLA-A2402, 41%; at HLA-A3303, 10.2%. Also, the inhibition at 15 µM at HLA-A0201 worked out at 96.2%; on HLA-A0203, 97.4%; on HLA-A1101 (24 h), 20%; at HLA-A2402, 52.5%; at HLA-A3303, 4.63%. The Affinity result at HLA-A2402 was “inter”. The “number of HLA-A allotypes bound” value in experiment [1] is listed as “two”.
On to `CC(C)C[C@H](NC(=O)[C@@H](NC(=O)[C@H](CCC(N)=O)NC(=O)[C@H](Cc1c[nH]cn1)NC(=O)[C@H](C)NC(=O)[C@H](CC(N)=O)NC(=O)[C@@H](NC(=O)[C@@H](N)[C@@H](C)O)C(C)C)C(C)C)C(=O)N1CCC[C@H]1C(=O)N[C@@H](CCCCN)C(=O)O` [Epitope P48] (H-TVNAHQVLPK-OH; N-terminus and C-terminus assumed), for which the IC50 is above 15 µM at HLA-A0201, below 5 µM on HLA-A1101, below 5 µM at HLA-A0301 (read-out: Affinity) and above 15 µM on HLA-A1102 (read-out: Affinity). In addition, the inhibition at 5 µM at HLA-A0201 was 9.5%; on HLA-A1101 (setting [2]), 86%; on HLA-A0301 (HLA-A0301 HMy2.CIR cells, competitor peptide 5μM, 24 hours, flow cytometry, read-out: 5μM Inhibition (%)) it was 67.9%; at HLA-A1102 (HLA-A1102 HMy2.CIR cells, competitor peptide 5μM, 24 hours, flow cytometry, read-out: 5μM Inhibition (%)) it was 25.5%. Also, the inhibition at 15 µM at HLA-A0201 came to 15%; on HLA-A1101 (setting [3]) it was 91%; at HLA-A0301 (HLA-A0301 HMy2.CIR cells, competitor peptide 15μM, 24 hours, flow cytometry, read-out: 15μM Inhibition (%)), 73.9%; on HLA-A1102 (HLA-A1102 HMy2.CIR cells, competitor peptide 15μM, 24 hours, flow cytometry, read-out: 15μM Inhibition (%)), 42.7%. Also, the “number of HLA-A allotypes bound” value in experiment [1] was “two”.
